Experimental findings from article PMC5748279, “Novel Antitubercular 6-Dialkylaminopyrimidine Carboxamides from Phenotypic Whole-Cell High Throughput Screening of a SoftFocus Library: Structure–Activity Relationship and Target Identification Studies” (Journal of Medicinal Chemistry, 2017) are described below.

In brackets after ≈: the same amount, converted by molar mass. Several values for one entry are separate records, joined by “and”; a condition that tells them apart may be missing. Equal values may be shown once.

The test system of data set [1] is Mtb::gfp strain (H37RvMa::pMSP12GFP). In kind it is cell-based. The settings on record: supplementary csv; for MIC99 7H9/ADC (values marked c: GFP strain based assay): 7H9/ADC medium; for MIC99 GAST/Fe (values marked c: GFP strain based assay): GAST/Fe medium.
For data set [2], the system named is Mycobacterium tuberculosis (H37RvMa). The experiment in a line: microbe, parasite or virus in culture. The data set is classed as cell-based. The settings on record: for fold more potent in 7H9/ADC compared to 1 / MIC99 7H9/ADC: 7H9/ADC medium; for fold more potent in 7H9/ADC compared to 1 / fold more potent in GAST/Fe compared to 1: versus compound 1; for fold more potent in GAST/Fe compared to 1 / MIC99 GAST/Fe: GAST/Fe medium; for MIC: Mycobacterium tuberculosis, medium not stated.

The subject of data set [3] is PrecA-LUX reporter (genotoxic compounds). In kind it is cell-based. The conditions noted are these: luminescence over 7 days, CIPRO control.
The test system of data set [4] is PiniB-LUX reporter (Mtb cell wall biosynthesis). In kind it is cell-based. The settings on record: luminescence over 7 days, INH control.
A short description of data set [5]: in vivo. The conditions noted are these: male, C57/BL6, mouse.
The format of data set [6] is in vitro ADME. Here is the method:
and ultracentrifuged for 4 hours (42000 rpm, 37 °C, Beckman Optima L,80XP). Analyte concentration of all compounds and sample types were determined by means of LC,MS/MS (Agilent Rapid Resolution HPLC, AB SCIEX 4000 QTRAP MS).
4.4) Lipophilicity (LogD7.4)
The lipophilicity assay was performed in triplicate using a shake,flask procedure. 10 mM stock solutions of each test compound were used to spike (100 µM) a 1:1 mixture of phosphate buffer (pH 7.4) and n,octanol. The solutions were shaken vigorously (1500 rpm) on an orbital shaker for 3 hours at room temperature. Thereafter the samples were centrifuged in order to fully separate the two immiscible fluids. The samples were analysed by HPLC,DAD (Agilent 1200 Rapid Resolution HPLC with a diode array detector) and the amount of compound in the buffer and n, octanol were used to determine the partition coefficient, LogD7.4.15
4.5) Parallel Artificial Membrane Permeability Assay (PAMPA):
The PAMPA assay was performed in triplicate in 96,well MultiScreen Filter plates (Millipore, 0.4 µM PCTE Membrane). Membrane filters were pre,coated with 5% hexadecane in hexane and allowed to dry prior to the assay. Membrane integrity marker, Lucifer yellow was added to the apical wells of the pre,coated MultiScreen plate donor/drug solutions containing test compound.
Phosphate buffer (pH7.4) was added to the 96,well acceptor plate. 10 mM test compound was used to spike (1 µM) the donor buffer at physiologically relevant pH's (pH 4, 6.5 and 8), the donor plate slotted into the acceptor plate and incubated (4 hours at room temperature) with gentle shaking (40,50 rpm). Following the incubation, sample from the acceptor wells and theoretical equilibrium wells were transferred to the analysis plate and matrix matched with blank donor buffer. Acetonitrile containing internal standard (carbamazepine, 0.0236 µg/mL) was added to all samples and they were analysed by LC,MS/MS (Agilent Rapid Resolution HPLC, AB SCIEX 4500 MS). The normalised (analyte/internal) peak areas were used to calculate the apparent permeability (Papp). Membrane integrity was assessed by calculating the Papp of Lucifer Yellow […]
chemosensitivity. […]. Thus only viable cells […]
formazan. Formazan crystals are dissolved in DMSO. The test samples were tested in triplicate on […]
experiment. […] Emetine was used […]
as the reference drug in all experiments. The initial concentration of emetine was 100 µg/mL, […]
lowest being 0.001 µg/mL. […] The […]
the cell viability (data not shown).
GraphPad Prism v.4 software. […]
expressing the full length hERG channel. Single cell ionic currents were measured in the […]

Data set [7] can be described thus: physchem. In kind it is physicochemical. How it is done:
The kinetic solubility assay was performed using a miniaturised shake flask method. 10 mM stock […]
DMSO, and to spike (1:50) duplicate aqueous samples of FaSSIF (simulating fasting state biorelevant media, pH 6.5), with a final DMSO concentration of 2%. After shaking for 2 hours at 25 °C, the solutions were filtered and analysed by means of HPLC,DAD (Agilent 1200 Rapid Resolution HPLC with a diode array detector). Best fit calibration curves were constructed using the calibration standards, which were used to determine the aqueous samples’ solubility.13
4.2) Microsomal stability
The metabolic stability assay was performed in duplicate in a 96,well micro titre plate. The test compounds (0.1 µM) were incubated individually in mouse, rat and pooled human liver […]
the cofactor NADPH (1 mM). Reactions were quenched by adding 300 µL of ice cold acetonitrile containing internal standard (carbamazepine, 0.0236 µg/mL). Test compounds in the supernatant were analysed by means of LC,MS/MS (Agilent Rapid Resolution HPLC, AB SCIEX 4000 QTRAP MS) for the disappearance of parent compound. Metabolite searches were not conducted during the metabolic stability assay.14
4.3) Plasma protein binding (PPB) assay
The plasma protein binding assay was performed in a 96,well micro titre plate with pooled human plasma, spiked with test compound (5 µM). An aliquot was immediately removed and quenched using ice cold acetonitrile containing internal standard (carbamazepine, 0.0236 µg/mL), and placed in the freezer. This served as the total concentration sample. After pre,incubation (37 °C for 1 hour) duplicate aliquots of the spiked plasma were transferred to ultra,centrifugation tubes, […]

The nature of data set [8]: Caseum binding using surrogate caseum.
The subject of data set [9] is Mycobacterium tuberculosis (H37RvMa). The experiment in a line: microbe, parasite or virus in culture. On the set-up: MIC99 by standard broth microdilution against M. tuberculosis H37Rv. The settings on record: read-out: MIC99 7H9/ADC (æM).
Data set [10] deals with T1, BCG_3193 (Rv3169) (Mycobacterium bovis BCG, UniProt A0A1R3Y3B6). The experiment in a line: biochemical. The data set is classed as binding.
T1 sequence (A0A1R3Y3B6 1-374): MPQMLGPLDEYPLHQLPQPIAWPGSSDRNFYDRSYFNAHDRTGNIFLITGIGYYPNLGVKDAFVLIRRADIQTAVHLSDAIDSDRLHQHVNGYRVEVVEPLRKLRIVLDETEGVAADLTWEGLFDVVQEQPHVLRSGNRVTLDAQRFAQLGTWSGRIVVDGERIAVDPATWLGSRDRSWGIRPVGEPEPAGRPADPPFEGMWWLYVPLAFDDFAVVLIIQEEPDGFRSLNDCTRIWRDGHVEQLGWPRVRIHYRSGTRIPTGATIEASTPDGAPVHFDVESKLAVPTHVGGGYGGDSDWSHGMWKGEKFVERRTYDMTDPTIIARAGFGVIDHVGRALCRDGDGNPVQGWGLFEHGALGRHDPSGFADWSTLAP
The test system of data set [11] is BCG_3827 (Rv3768). In kind it is binding, Mycobacterium bovis BCG.
In data set [12] the target is T1, BCG_3193 (Rv3169). The data set can be described thus: biochemical. On the set-up: species or system Mycobacterium bovis BCG extract. The conditions noted are these: bead competition in BCG extract.

In the case of `CN(Cc1ccc(S(C)(=O)=O)cc1)c1cc(C(=O)Nc2ccccc2)ncn1` [Compound 17, 6-(Methyl(4-(methylsulfonyl)benzyl)amino)-N-phenylpyrimidine-4-carboxamide], in data set [1], the “MIC99 7H9/ADC (values marked c: GFP strain based assay)” value was over 125c æM and the “MIC99 GAST/Fe (values marked c: GFP strain based assay)” value is on record as over 125c æM.
For the molecule `CN(Cc1ccc(F)cc1)c1cc(C(=O)Nc2ccccc2)ncn1` [Compound 10, 6-((4-Fluorobenzyl)(methyl)amino)-N-phenylpyrimidine-4-carboxamide], in data set [2], the “fold more potent in 7H9/ADC compared to 1” value is given as at least 4 fold and the “fold more potent in GAST/Fe compared to 1” value is given as at least 2 fold.
Turning to `CN1CCN(c2cccc(NC(=O)c3cc(N(C)Cc4ccc(F)cc4)ncn3)c2)CC1` [Compound 42, 6-((4-Fluorobenzyl)(methyl)amino)-N-(3-(4-methylpiperazin-1-yl)phenyl)pyrimidine-4-carboxamide], the “MIC values dropping by fold” value in data set [2] (3-position versus 4-position N-methylpiperazine) is on record as 10- to 30 fold.
With `CN(Cc1ccc(C(F)(F)F)cc1)c1cc(C(=O)NC2CCCCC2)ncn1` [Compound 34, N-Cyclohexyl-6-(methyl(4-(trifluoromethyl)benzyl)amino)pyrimidine-4-carboxamide], in data set [1], the “MIC99 7H9/ADC (values marked c: GFP strain based assay)” value was over 125c æM and the “MIC99 GAST/Fe (values marked c: GFP strain based assay)” value came out at 12c æM.
Regarding `COc1ccc(NC(=O)c2cc(N(C)Cc3cccc(F)c3)ncn2)cc1` [Compound 13, 6-((3-Fluorobenzyl)(methyl)amino)-N-(4-methoxyphenyl)pyrimidine-4-carboxamide], the PrecA-LUX reporter response entry in data set [3] is “delayed (Day 3 onwards) induction of luminescence”. Also, the PiniB-LUX reporter response entry in data set [4] is on record as “a weak, delayed response”.
As to `CN(Cc1ccc(C(F)(F)F)nc1)c1cc(C(=O)Nc2ccccc2)ncn1` [Compound 20, 6-(Methyl((6-(trifluoromethyl)pyridin-3-yl)methyl)amino)-N-phenylpyrimidine-4-carboxamide], in data set [5] (iv, 5 mg/kg), the AUC(0-inf) at 24 h was 19.6 µM·h and the clearance at 24 h came out at 11.2 mL/min/kg. Moreover, in data set [5] (po, 20 mg/kg), the AUC(0-inf) at 24 h was 33.3 µM·h. Besides, the “PAMPA log Papp” value in data set [6] is “–3.8”.
In data set [5] (iv, 5 mg/kg), `CN(Cc1ccc(F)cc1)c1cc(C(=O)Nc2nncs2)ncn1` [Compound 51, 6-((4-Fluorobenzyl)(methyl)amino)-N-(1,3,4-thiadiazol-2-yl)pyrimidine-4-carboxamide] showed an AUC(0-inf) at 24 h of 22.1 µM·h, a clearance at 24 h of 11.1 mL/min/kg and a half-life at 24 h of 5.1 h. In [5] (po, 20 mg/kg), this molecule had an AUC(0-inf) at 24 h of 17 µM·h and a half-life at 24 h of 4.4 h. Further, the kinetic solubility at 2 h in [7] (pH 7.4, pH 7.4) was over 100 µM. The caseum distribution unbound in [8] is listed as 0.5%.
With “6-((4-Cyanobenzyl)(methyl)amino)-N-phenylpyrimidine-4-carboxamide [Compound 16]”, the solubility (kinetic) at 2 h in data set [7] (pH 7.4) is on record as under 5 µM. In data set [7] (supplementary csv), the Solubility is given as <5 æM. Also, the results for the “MIC99 7H9/ADC” value in [2] and in [2] (supplementary csv) were over 50 µM and >50 æM, respectively. For the same molecule, the “MIC99 GAST/Fe” value in [2] was 20 µM; in [2] (supplementary csv), 20 æM.
`CN(Cc1ccc(C(F)(F)F)cc1)c1cc(C(=O)Nc2ccccc2)ncn1` [Compound 12, 6-(Methyl(4-(trifluoromethyl)benzyl)amino)-N-phenylpyrimidine-4-carboxamide]: in data set [5] (iv, 5 mg/kg), the AUC(0-inf) at 24 h was 20.4 µM·h, the clearance at 24 h was determined as 11.3 mL/min/kg and the half-life at 24 h was 4.6 h. In addition, in data set [5] (po, 20 mg/kg), the AUC(0-inf) at 24 h was 22.2 µM·h and the half-life at 24 h is 8.7 h. The molecule further gave a caseum distribution unbound in [8] of 0.1%. Further, the PrecA-LUX reporter response entry in data set [3] was “delayed (Day 3 onwards) induction of luminescence”. Further, the “PAMPA log Papp” value in data set [6] was “–4.9”. In addition, in data set [4], the PiniB-LUX reporter response result was “a weak, delayed response”.
As to `O=C(Nc1ccccc1)c1cc(OCC2CCCCC2)ncn1` [compound 4], the MIC99 in data set [9] was over 160 µM.
Take `CN(Cc1cccnc1)c1cc(C(=O)Nc2ccccc2)ncn1` [Compound 19, 6-(Methyl(pyridin-3-ylmethyl)amino)-N-phenylpyrimidine-4-carboxamide]: in data set [1], the “MIC99 7H9/ADC (values marked c: GFP strain based assay)” value is reported as 48c æM and the “MIC99 GAST/Fe (values marked c: GFP strain based assay)” value is recorded as 37c æM.
Take “6-(Benzyloxy)-N-phenylpyrimidine-4-carboxamide [Compound 4]”: the “MIC99 7H9/ADC” value in data set [2] was over 160 µM; in [2] (supplementary csv), >160 æM.
`CN(Cc1ccc(C(F)(F)F)nc1)c1cc(C(=O)Nc2ccc(N3CCOCC3)cn2)ncn1` [Compound 46, 6-(Methyl((6-(trifluoromethyl)pyridin-3-yl)methyl)amino)-N-(5-morpholinopyridin-2-yl)pyrimidine-4-carboxamide] had an MIC in data set [2] of 2 to 3 µM (≈ 0.947 to 1.42 µg/mL).
Same read-out and setting: with `CN(Cc1ccc(F)cc1)c1cc(C(=O)Nc2ccc(N3CCOCC3)cc2)ncn1` [Compound 45, 6-((4-Fluorobenzyl)(methyl)amino)-N-(4-morpholinophenyl)pyrimidine-4-carboxamide] the figure was under 5 µM.
Take `CN(Cc1ccc(Cl)cc1)c1cc(C(=O)Nc2ccccc2)ncn1` [Compound 11, 6-((4-Chlorobenzyl)(methyl)amino)-N-phenylpyrimidine-4-carboxamide]: in [2], the “fold more potent in 7H9/ADC compared to 1” value is given as at least 4 fold and the “fold more potent in GAST/Fe compared to 1” value was at least 2 fold.
For the molecule `CN1CCN(c2ccc(NC(=O)c3cc(N(C)Cc4ccc(C(F)(F)F)cc4)ncn3)cc2)CC1` [Compound 40, 6-(Methyl(4-(trifluoromethyl)benzyl)amino)-N-(4-(4-methylpiperazin-1-yl)phenyl)pyrimidine-4-carboxamide], the AUC(0-inf) at 24 h in [5] (iv, 5 mg/kg) was 9 µM·h; in data set [5] (po, 20 mg/kg) it was 9.4 µM·h. The half-life at 24 h was 10.3 h in data set [5] (iv, 5 mg/kg) and 15.8 h in data set [5] (po, 20 mg/kg). The molecule also returned a Hill in data set [10] of 1.62. Also, in data set [10], the “binding of BCG_3193 to the compound beads in presence of free compound” value is reported as “reduced binding”. The IC50 in [10] (IC50) was 1100 nM; in [10] (pIC50), 1100 nM; in data set [11], 10000 nM; in data set [12] (IC50, Experiment ID=X028553), 1700 nM; in data set [12] (IC50, Experiment ID=X028554), 1500 nM. The Kd in [10] (apparent dissociation constant Kd^app for BCG_3193) is 610 nM and 690 nM; in [11] (read-out: apparent dissociation constant Kd^app for BCG_3827), 2100 nM and 3800 nM. In data set [8], this molecule gave a caseum distribution unbound of 0.1%. In addition, the “PAMPA log Papp” value in [6] is recorded as “–4.5”. Moreover, in data set [11], the “binding of BCG_3827 to the compound beads in presence of free compound” value is given as “reduced binding”.

In general, AUC(0-inf) refers to total exposure, with the tail of the curve extrapolated. Read a high AUC(0-inf) as high exposure. Broadly, the clearance is a measure of how efficiently the substance is removed, as volume per time. Usually half-life stands for how long it takes for the measured level to halve. In general, solubility (kinetic) refers to solubility judged after dilution from a stock solution rather than from solid. As usually defined, the IC50 is the concentration that gives 50% inhibition.
